In US7528138B2, “Pyrazolo[1,5-a]pyrimidines useful as inhibitors of protein kinases” (Vertex Pharmaceuticals Incorporated, priority 2004, dated 2009):

Key:
[1] = biological target: T1, JAK3 (Homo sapiens, UniProt P52333); assay: JAK3 Inhibition Assay, 33P incorporation; assay type: biochemical; details: enzyme inhibition data (Ki), Table 11
T1 sequence (P52333 1-1124): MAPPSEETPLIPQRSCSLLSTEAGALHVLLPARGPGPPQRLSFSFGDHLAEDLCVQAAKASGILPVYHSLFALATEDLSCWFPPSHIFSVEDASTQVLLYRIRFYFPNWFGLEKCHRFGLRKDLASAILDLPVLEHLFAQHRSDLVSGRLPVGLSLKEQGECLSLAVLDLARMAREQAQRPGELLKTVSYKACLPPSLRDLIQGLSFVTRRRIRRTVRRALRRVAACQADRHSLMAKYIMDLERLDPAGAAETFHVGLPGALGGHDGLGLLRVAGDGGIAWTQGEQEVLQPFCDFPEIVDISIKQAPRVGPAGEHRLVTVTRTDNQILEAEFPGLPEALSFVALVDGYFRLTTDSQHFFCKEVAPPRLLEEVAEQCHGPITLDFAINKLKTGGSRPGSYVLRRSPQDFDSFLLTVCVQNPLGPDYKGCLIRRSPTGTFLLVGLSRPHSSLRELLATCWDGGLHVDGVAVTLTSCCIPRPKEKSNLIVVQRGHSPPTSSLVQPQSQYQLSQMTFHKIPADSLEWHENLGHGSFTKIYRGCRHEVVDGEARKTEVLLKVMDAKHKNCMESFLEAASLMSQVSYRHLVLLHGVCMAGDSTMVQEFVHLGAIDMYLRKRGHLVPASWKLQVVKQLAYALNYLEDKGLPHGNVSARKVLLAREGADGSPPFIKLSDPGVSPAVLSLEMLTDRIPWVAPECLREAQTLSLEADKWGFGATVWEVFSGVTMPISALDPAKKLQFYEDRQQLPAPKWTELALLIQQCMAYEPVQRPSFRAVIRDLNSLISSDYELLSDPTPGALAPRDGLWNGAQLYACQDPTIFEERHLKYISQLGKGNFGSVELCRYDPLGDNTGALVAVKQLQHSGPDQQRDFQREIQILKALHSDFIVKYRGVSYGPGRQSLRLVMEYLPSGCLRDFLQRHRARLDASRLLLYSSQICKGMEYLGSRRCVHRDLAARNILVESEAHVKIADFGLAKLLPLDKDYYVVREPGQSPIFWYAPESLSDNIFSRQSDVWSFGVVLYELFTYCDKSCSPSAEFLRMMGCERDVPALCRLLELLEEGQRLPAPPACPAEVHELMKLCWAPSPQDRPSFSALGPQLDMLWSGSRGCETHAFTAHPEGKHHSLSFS
Summary of the method: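 33P incorporation into 1 μM poly(Glu)4Tyr was counted after TCA stop and glass fiber filtration. The 20 min reaction ran at 25 °C with 1 nM JAK3 and 5 μM ATP (200 uCi/μmole). Buffer was 100 mM HEPES pH 7.4, 10 mM MgCl2, 25 mM NaCl, 1 mM DTT, 0.01% BSA.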

[2] = biological target: T2, Itk (Homo sapiens, UniProt Q08881); assay: ITK Inhibition Assay (Radiometric), radioactive-phosphate incorporation; assay type: biochemical; details: enzyme inhibition data (Ki), Table 11; radiometric or UV assay not stated
T2 sequence (Q08881 1-620): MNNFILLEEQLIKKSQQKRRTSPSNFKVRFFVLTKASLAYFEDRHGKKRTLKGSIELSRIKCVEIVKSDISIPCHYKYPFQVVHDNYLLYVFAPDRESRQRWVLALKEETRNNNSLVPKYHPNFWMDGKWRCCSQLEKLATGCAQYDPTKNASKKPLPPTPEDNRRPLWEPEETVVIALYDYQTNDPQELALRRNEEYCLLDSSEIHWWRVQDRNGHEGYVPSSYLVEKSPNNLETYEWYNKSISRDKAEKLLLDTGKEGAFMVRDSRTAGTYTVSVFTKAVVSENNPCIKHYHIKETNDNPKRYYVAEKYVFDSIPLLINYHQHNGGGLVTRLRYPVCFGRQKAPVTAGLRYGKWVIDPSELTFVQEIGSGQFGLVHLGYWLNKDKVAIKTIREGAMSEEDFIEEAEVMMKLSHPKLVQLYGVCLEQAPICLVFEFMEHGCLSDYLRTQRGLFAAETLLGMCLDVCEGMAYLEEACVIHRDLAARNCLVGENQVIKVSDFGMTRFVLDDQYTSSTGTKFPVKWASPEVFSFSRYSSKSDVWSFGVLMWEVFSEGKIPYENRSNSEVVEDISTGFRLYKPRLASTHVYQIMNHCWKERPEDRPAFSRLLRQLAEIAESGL
Summary of the method: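 Radiometric 33P incorporation into SAM68 peptide (D332-443) with filter capture and scintillation counting; 10 min pre-incubation then 10 min reaction at 25° C. IC50 format: 30 nM Itk, 15 μM ATP, 2 μM peptide, HEPES pH 7.5. Ki(app) format: 50 nM Itk, 7.5 μM ATP, 3 μM peptide, MOPS pH 7.0.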

In the case of `Nc1nn2cc(-c3ccc(N4CCNCC4)nc3)cnc2c1-c1ccccn1` [Compound V-151], the Ki [1] is reported as over 5000 nM and the Ki [2] is reported as under 500 nM.
Work on `Nc1nn2cc(C#CCO)cnc2c1-c1ccccn1` [Compound V-238] yielded a Ki [1] of 500 to 5000 nM and a Ki [2] of 500 to 5000 nM.
`CNc1cc(-c2c(N)nn3cc(-c4ccncc4)cnc23)ncn1` [Compound V-181] gave a Ki [1] of under 500 nM and a Ki [2] of under 500 nM.
In the case of `Nc1nn2cc(-c3ccncc3)cnc2c1-c1ncccc1OCc1ccccc1` [Compound V-134], the Ki [1] is reported as over 5000 nM and the Ki [2] is reported as 500 to 5000 nM.
`NC1NN2C=C(c3cccc(CN4CC[C@H](N)C4)c3)C=NC2=C1c1ccccn1` (stereo partly shown) [Compound V-227] showed a Ki [1] of over 5000 nM and a Ki [2] of under 500 nM.
Work on `COc1ccccc1-c1cnc2c(-c3ccccn3)c(N)nn2c1` [Compound V-14] yielded a Ki [1] of over 5000 nM and a Ki [2] of 500 to 5000 nM.
For `Nc1nn2cc(-c3ccncc3)cnc2c1-c1cc(NCC2CCCCC2)ncn1` [Compound V-184], the Ki [1] was 500 to 5000 nM and the Ki [2] was under 500 nM.
Compound `CN(CCCN)C(=O)c1cccc(-c2cnc3c(-c4ccccn4)c(N)nn3c2)n1` [Compound V-155] has a Ki [1] of 500 to 5000 nM and a Ki [2] of under 500 nM.
Work on `Nc1nn2cc(-c3cccc(C(=O)N4CCC(N)CC4)n3)cnc2c1-c1ccccn1` [Compound V-104] yielded a Ki [1] of over 5000 nM and a Ki [2] of 500 to 5000 nM.
`CN1CCC(N(C)C(=O)c2cccc(-c3cnc4c(-c5ccccn5)c(N)nn4c3)n2)CC1` [Compound V-101] was tested, and the Ki [1] was over 5000 nM and the Ki [2] was 500 to 5000 nM.
With `COCCCN1CCN(C(=O)c2ccc(-c3cnc4c(-c5ccccn5)c(N)nn4c3)nc2)CC1` [Compound V-129] the Ki [1] was 500 to 5000 nM and the Ki [2] was under 500 nM.
`Nc1nn2cc(-c3ccc(N4CCC[C@@H]4CN4CCCC4)nc3)cnc2c1-c1ccccn1` [Compound V-176] was tested, and the Ki [1] was 500 to 5000 nM and the Ki [2] was under 500 nM.
`Nc1nn2cc(-c3ccc(CN4CC[C@H](N)C4)cc3)cnc2c1-c1ccccn1` [Compound V-233] was tested, and the Ki [1] was 500 to 5000 nM and the Ki [2] was under 500 nM.
`Nc1nn2cc(-c3ccncc3)cnc2c1-c1cc(N2CCCCC2)ncn1` [Compound V-179] gave a Ki [1] of under 500 nM and a Ki [2] of under 500 nM.
Compound `Nc1nn2cc(-c3ccc(CO)cc3)cnc2c1-c1ccccn1` [Compound V-194] has a Ki [1] of 500 to 5000 nM and a Ki [2] of under 500 nM.
Compound `Nc1nn2cc(-c3cccc(C(=O)N4CCC[C@H]4CN4CCCC4)n3)cnc2c1-c1ccccn1` [Compound V-154] has a Ki [1] of over 5000 nM and a Ki [2] of 500 to 5000 nM.
In the case of `CNCCCN(C)Cc1ccc(-c2cnc3c(-c4ccccn4)c(N)nn3c2)cc1` [Compound V-230], the Ki [1] is reported as 500 to 5000 nM and the Ki [2] is reported as under 500 nM.
Compound `COc1ccc(-c2cnc3c(-c4ccncc4)c(N)nn3c2)cc1` [Compound V-219] has a Ki [1] of over 5000 nM and a Ki [2] of 500 to 5000 nM.
`Nc1nn2cc(-c3cccc(CN4CCNCC4)c3)cnc2c1-c1ccccn1` [Compound V-223] was tested, and the Ki [1] was 500 to 5000 nM and the Ki [2] was under 500 nM.
`CCN(CC)c1cc(-c2c(N)nn3cc(-c4ccncc4)cnc23)ncn1` [Compound V-180] was tested, and the Ki [1] was under 500 nM and the Ki [2] was under 500 nM.
`CCN1CCN(c2ccc(-c3cnc4c(-c5ccccn5)c(N)nn4c3)cn2)CC1` [Compound V-166] gave a Ki [1] of over 5000 nM and a Ki [2] of under 500 nM.
`Nc1nn2cc(-c3ccc4[nH]ccc4c3)cnc2c1-c1ccccn1` [Compound V-212] gave a Ki [1] of over 5000 nM and a Ki [2] of under 500 nM.
In the case of `CN(C)CCN(C)C(=O)c1ccc(-c2cnc3c(-c4ccccn4)c(N)nn3c2)cc1` [Compound V-188], the Ki [1] is reported as 500 to 5000 nM and the Ki [2] is reported as under 500 nM.
In the case of `Nc1nn2cc(-c3ccc(C(=O)N4CCC[C@H]4CN4CCCC4)cn3)cnc2c1-c1ccccn1` [Compound V-177], the Ki [1] is reported as 500 to 5000 nM and the Ki [2] is reported as under 500 nM.
Compound `Nc1nn2cc(-c3ccc(CN4CCOCC4)cc3)cnc2c1-c1ccccn1` [Compound V-208] has a Ki [1] of 500 to 5000 nM and a Ki [2] of under 500 nM.
`NCc1cccc(-c2cnc3c(-c4ccccn4)c(N)nn3c2)c1` [Compound V-202] was tested, and the Ki [1] was over 5000 nM and the Ki [2] was under 500 nM.
`COc1ccccc1Nc1cc(-c2c(N)nn3cc(-c4ccncc4)cnc23)ncn1` [Compound V-242] gave a Ki [1] of under 500 nM and a Ki [2] of under 500 nM.
`Nc1nn2cc(-c3ccc(CN4CCNCC4)cc3)cnc2c1-c1ccccn1` [Compound V-217] was tested, and the Ki [1] was 500 to 5000 nM and the Ki [2] was under 500 nM.
`CN(C)CCNc1ccc(-c2cnc3c(-c4ccccn4)c(N)nn3c2)cn1` [Compound V-159] showed a Ki [1] of 500 to 5000 nM and a Ki [2] of under 500 nM.
`CCN(CC)CCN(C)C(=O)c1cccc(-c2cnc3c(-c4ccccn4)c(N)nn3c2)n1` [Compound V-124] was tested, and the Ki [1] was over 5000 nM and the Ki [2] was 500 to 5000 nM.
With `Nc1nn2cc(C(=O)NC3CCCNC3)cnc2c1-c1ccccn1` (stereo not shown) [Compound V-206] the Ki [1] was over 5000 nM and the Ki [2] was 500 to 5000 nM.
With `CCN(CC)CCN(C)c1ccc(-c2cnc3c(-c4ccccn4)c(N)nn3c2)cn1` [Compound V-173] the Ki [1] was 500 to 5000 nM and the Ki [2] was under 500 nM.
